From US12268689B2, “Eutectic form A of Elagolix and pyrimethamine, preparation method therefor and use thereof” (Shenzhen Rentai Pharmatech Ltd., priority 2019, dated 2025)
Entries after “also recorded” stand apart in the source; their conditions may differ.

Experiments:
Format in all cases: physicochemical
[1] = High temperature stability test (60° C., 30 days; HPLC purity and XRPD)
Description: (§1) High temperature stability: samples of a raw drug of Elagolix sodium and an eutectic form A formed by Elagolix and pyrimethamine (prepared in Comparative example 1 and Example 1, respectively) were taken and separately placed at 60° C. for 30 days, sampling was conducted at fixed time points on day 5, day 10 and day 30, respectively to determine the XRPD pattern of the eutectic form A, and the content of the raw drug of Elagolix sodium and the eutectic form A, and the determined XRPD pattern of the eutectic form A, and the determined content of the raw drug of Elagolix sodium and the eutectic form A were compared with those on day 0.
(§2) The specific stability test method can refer to the method in Appendix XIC of Part II of Chinese Pharmacopoeia (2015 Edition); and the purity was detected by an HPLC method, and can be determined by an external standard method with reference to the method in Appendix VD of Chinese Pharmacopoeia (2015 Edition) by using the sample on day 0 as a control.
(§3) Operating Conditions for HPLC
(§4) • Instrument: high performance liquid chromatograph (model: Agilent Technologies 1260) • Chromatographic column: shiseido CAPCELL PAK C18 column (5 μm, 250 mm×4.6 mm) Mobile Phase Composition and Gradient Elution Procedure:
(§5) • Detection wavelength: 254 nm • Flow rate: 1 mL/min • Injection volume: 10 μL • Column temperature: 30° C.

[2] = Light stability test (25° C., 4500 Lux, 30 days; HPLC purity and XRPD); conditions: light conditions
Description: Light stability: samples of a raw drug of Elagolix sodium and an eutectic form A formed by Elagolix and pyrimethamine (prepared in Comparative example 1 and Example 1, respectively) were taken and separately placed at 25° C. under light conditions of 4500 Lux for 30 days, sampling was conducted at fixed time points on day 5, day 10 and day 30, respectively to determine the XRPD pattern of the eutectic form A, and the content of Elagolix in the raw drug of Elagolix sodium and the eutectic form A, and the determined XRPD pattern of the eutectic form A, and the determined content of Elagolix in the raw drug of Elagolix sodium and the eutectic form A were compared with those on day 0.
as §2, §3
• Instrument: high performance liquid chromatograph (model: Agilent Technologies 1260) • Chromatographic column: shiseido CAPCELL PAK C18 column (5 μm, 250 mm×4.6 mm) Mobile Phase Composition and Gradient Elution Procedure: […]

[3] = High humidity stability test (25° C., 92.5% RH, 30 days; HPLC purity and XRPD)
Description: as §1, with “humidity” for “temperature”, “25°” for “60°”, “C. at 92.5% RH” for “C.”
as §2, §3, §4, §5

COc1cccc(-c2c(C)n(Cc3c(F)cccc3C(F)(F)F)c(=O)n(C[C@H](NCCCC(=O)O)c3ccccc3)c2=O)c1F [Elagolix sodium]
not good; also recorded: unstable: High temperature stability (in words) [1] | Light stability (in words) [2] | High humidity stability (in words) [3]
